Results from the supplement of paper PMC11451515.

Test system: SEM cells
Experiment: cell viability relative to DMSO control; higher = less cytotoxic
Conditions: 48 h
Procedure, shortened: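 NOMO1 or SEM cells were plated at 500 cells/well and P12-Ichikawa cells at 1000 cells/well in 1536-well plates (5 μl), after each leukemia line had been adapted for at least four passages in each medium. Pin dosing delivered library compounds in DMSO at 11 threefold concentrations, 47 μM to 0.79 nM. CellTiter-Glo One luminescence was read after 48 h at 37°C. Viability is reported as a per-plate percentage of DMSO wells, with cell-free wells as background.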

[1] = HPLM + 10% dialyzed FBS, 0.000781 µM
[2] = HPLM + 10% dialyzed FBS, 0.00234 µM
[3] = HPLM + 10% dialyzed FBS, 0.00702 µM
[4] = HPLM + 10% dialyzed FBS, 0.0211 µM
[5] = HPLM + 10% dialyzed FBS, 0.0632 µM
[6] = HPLM + 10% dialyzed FBS, 0.19 µM
[7] = HPLM + 10% dialyzed FBS, 0.569 µM
[8] = HPLM + 10% dialyzed FBS, 1.71 µM
[9] = HPLM + 10% dialyzed FBS, 5.12 µM
[10] = HPLM + 10% dialyzed FBS, 15.4 µM
[11] = HPLM + 10% dialyzed FBS, 46.1 µM
[12] = RPMI 5 mM glucose + 10% FBS, 0.000781 µM
[13] = RPMI 5 mM glucose + 10% FBS, 0.00234 µM
[14] = RPMI 5 mM glucose + 10% FBS, 0.00702 µM
[15] = RPMI 5 mM glucose + 10% FBS, 0.0211 µM
[16] = RPMI 5 mM glucose + 10% FBS, 0.0632 µM
[17] = RPMI 5 mM glucose + 10% FBS, 0.19 µM
[18] = RPMI 5 mM glucose + 10% FBS, 0.569 µM
[19] = RPMI 5 mM glucose + 10% FBS, 1.71 µM
[20] = RPMI 5 mM glucose + 10% FBS, 5.12 µM
[21] = RPMI 5 mM glucose + 10% FBS, 15.4 µM
[22] = RPMI 5 mM glucose + 10% FBS, 46.1 µM
[23] = RPMI 5 mM glucose + 10% dialyzed FBS, 0.000781 µM
[24] = RPMI 5 mM glucose + 10% dialyzed FBS, 0.00234 µM
[25] = RPMI 5 mM glucose + 10% dialyzed FBS, 0.00702 µM
[26] = RPMI 5 mM glucose + 10% dialyzed FBS, 0.0211 µM
[27] = RPMI 5 mM glucose + 10% dialyzed FBS, 0.0632 µM
[28] = RPMI 5 mM glucose + 10% dialyzed FBS, 0.19 µM
[29] = RPMI 5 mM glucose + 10% dialyzed FBS, 0.569 µM
[30] = RPMI 5 mM glucose + 10% dialyzed FBS, 1.71 µM
[31] = RPMI 5 mM glucose + 10% dialyzed FBS, 5.12 µM
[32] = RPMI 5 mM glucose + 10% dialyzed FBS, 15.4 µM
[33] = RPMI 5 mM glucose + 10% dialyzed FBS, 46.1 µM

| SMILES | cell viability [1] [%] | cell viability [2] [%] | cell viability [3] [%] | cell viability [4] [%] | cell viability [5] [%] | cell viability [6] [%] | cell viability [7] [%] | cell viability [8] [%] | cell viability [9] [%] | cell viability [10] [%] | cell viability [11] [%] | cell viability [12] [%] | cell viability [13] [%] | cell viability [14] [%] | cell viability [15] [%] | cell viability [16] [%] | cell viability [17] [%] | cell viability [18] [%] | cell viability [19] [%] | cell viability [20] [%] | cell viability [21] [%] | cell viability [22] [%] | cell viability [23] [%] | cell viability [24] [%] | cell viability [25] [%] | cell viability [26] [%] | cell viability [27] [%] | cell viability [28] [%] | cell viability [29] [%] | cell viability [30] [%] | cell viability [31] [%] | cell viability [32] [%] | cell viability [33] [%] |
| --- | --- | --- | --- | --- | --- | --- | --- | --- | --- | --- | --- | --- | --- | --- | --- | --- | --- | --- | --- | --- | --- | --- | --- | --- | --- | --- | --- | --- | --- | --- | --- | --- | --- |
| Cc1ccc([S+](=O)([O-])N[C@@H](Cc2ccccc2)C(=O)CCl)cc1 | 91 | 58.6 | 93.2 | 93.3 | 93 | 105 | 96.4 | 109 | 103 | 85.5 | 25.3 | 87.4 | 53.1 | 94 | 97 | 95.8 | 114 | 95.6 | 108 | 104 | 87 | 22.1 | 80.5 | 49.8 | 100 | 104 | 88.6 | 95.4 | 93.6 | 107 | 100 | 94.3 | 23.4 |
| CC(C)C[C@H](NC(=O)[C@H](CCc1ccccc1)NC(=O)CN1CCOCC1)C(=O)N[C@@H](Cc1ccccc1)C(=O)N[C@@H](CC(C)C)C(=O)[C@@]1(C)CO1 | 84.6 | 86.5 | 100 | 8.14 | 7.13 | 7.08 | 6.63 | 5.14 | 4.16 | 1.67 | 1.47 | 97.5 | 102 | 65.7 | 8.2 | 7.68 | 6.95 | 7.46 | 4.9 | 2.81 | 1.52 | 1.37 | 72.1 | 81.7 | 80.6 | 8.46 | 7.46 | 7.29 | 6.73 | 4.71 | 3.02 | 1.73 | 1.54 |
| Cc1cc(C(C)(C)C)c(O)c(C)c1CC1=NCCN1 | 62.6 | 80.2 | 75.4 | 83 | 76.8 | 83.3 | 86.9 | 91.9 | 66.6 | 60.3 | 62.5 | 83.8 | 82.1 | 91.1 | 83.6 | 86.7 | 100 | 102 | 101 | 53.1 | 51.8 | 59.3 | 90.3 | 77.7 | 82.2 | 89.3 | 93.3 | 95.4 | 87.5 | 105 | 77.2 | 57.9 | 55.9 |
| CNc1nccc(-c2cccnc2Oc2cc(C(=O)Nc3cccc(C(F)(F)F)c3)ccc2C)n1 | 97.2 | 101 | 115 | 113 | 118 | 104 | 122 | 113 | 109 | 90.2 | 97.8 | 106 | 92.6 | 99.8 | 103 | 111 | 103 | 113 | 97.4 | 95.9 | 72.4 | 92.9 | 95.8 | 97.4 | 103 | 107 | 119 | 125 | 103 | 107 | 97.9 | 82.9 | 97 |
| C[C@]12CC[C@@H]3c4ccc(O)cc4C[C@@H](CCCCCCCCC[S+]([O-])CCCC(F)(F)C(F)(F)F)[C@H]3[C@@H]1CC[C@@H]2O (stereo partly specified) | 123 | 112 | 114 | 118 | 113 | 112 | 125 | 117 | 119 | 126 | 109 | 89.1 | 84 | 82.8 | 93.2 | 85 | 80.4 | 82.4 | 99.2 | 80.8 | 83.7 | 86.3 | 120 | 124 | 105 | 111 | 110 | 112 | 125 | 114 | 103 | 102 | 81.6 |
| Nc1ncnc2c1c(-c1cnc3[nH]ccc3c1)nn2C1CCCC1 | 111 | 113 | 127 | 122 | 113 | 105 | 95.2 | 69.6 | 51.1 | 36.2 | 11 | 81.9 | 76.3 | 85.1 | 95.4 | 94.8 | 73.6 | 68.8 | 49.2 | 33.8 | 24.7 | 6.03 | 123 | 120 | 125 | 114 | 129 | 112 | 99.6 | 73.8 | 59.5 | 42.6 | 6.97 |
| CSCC[C@@H](NC(=O)[C@@H](Cc1ccccc1)NC(=O)CNC(=O)CNC(=O)[C@@H](N)Cc1ccc(O)cc1)C(=O)O | 73.5 | 44.7 | 93 | 22 | 106 | 103 | 94.9 | 102 | 98.9 | 91.6 | 99.6 | 72.6 | 25.7 | 80.9 | 15.5 | 103 | 104 | 90.5 | 107 | 96.6 | 99.9 | 120 | 81.9 | 38.3 | 102 | 20.9 | 95.6 | 103 | 92.3 | 99.7 | 106 | 103 | 99.8 |
